In ChEMBL document CHEMBL1157537 (J Med Chem, 2008):

Target: T1, Estrogen receptor (Homo sapiens) (UniProt P03372)
T1 sequence (whole entry): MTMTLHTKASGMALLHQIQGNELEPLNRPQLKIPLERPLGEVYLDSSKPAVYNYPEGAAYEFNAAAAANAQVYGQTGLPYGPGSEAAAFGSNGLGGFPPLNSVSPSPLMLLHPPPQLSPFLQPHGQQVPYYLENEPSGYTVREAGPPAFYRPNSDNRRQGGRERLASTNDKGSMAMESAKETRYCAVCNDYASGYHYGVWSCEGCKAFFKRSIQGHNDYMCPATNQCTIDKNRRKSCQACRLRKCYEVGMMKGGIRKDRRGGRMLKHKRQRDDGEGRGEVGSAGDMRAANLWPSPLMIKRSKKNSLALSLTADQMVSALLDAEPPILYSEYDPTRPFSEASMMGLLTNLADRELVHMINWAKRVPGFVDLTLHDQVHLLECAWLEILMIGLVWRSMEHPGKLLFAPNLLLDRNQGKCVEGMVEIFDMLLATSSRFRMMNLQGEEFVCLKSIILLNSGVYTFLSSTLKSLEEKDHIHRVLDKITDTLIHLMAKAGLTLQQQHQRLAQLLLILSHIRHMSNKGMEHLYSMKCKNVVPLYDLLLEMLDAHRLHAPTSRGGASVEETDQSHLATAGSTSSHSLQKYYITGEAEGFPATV
Test: Agonist activity at human estrogen receptor alpha relative to 17-beta-estradiol
Format: functional

Structure (SMILES): CC1=C[C@@H]([C@@H]2Oc3c(F)cc(F)cc3-c3ccc4c(c32)C(C)=CC(C)(C)N4)CCC1 (stereo in doubt; (-)-5c)
- Efficacy: 5%
